Reference: patent US5932584A, “Optically active 2,3-dihydroimidazo(1,2-C) quinazoline derivatives, the preparation and antihypertensive use thereof” (National Science Council, priority 1997, dated 1999)
Where two headings read alike, the source gives them in different places.

Biological target: α1 -Adrenergic receptor
Test: α1-Adrenergic receptor binding assay ([^3 H] prazosin competition, rat brain cortex membranes)
Procedure: Rat brain cortex membranes were prepared for [^3 H] prazosin or [^3 H] clonidine binding by homogenizing tissues in 0.32 M sucrose buffered with 50 mM Tris buffer (pH 7.4) in a tissue/buffer ratio of 1:10. After the removal of nuclei by centrifugation at 1000×g for 10 min, P2 membranes were pelleted by centrifuging the supernatant at 22,000×g for 20 min. After two periods of centrifugation at 22,000×g and resuspension in fresh buffer, the membrane suspension (about 2 mg/ml protein) was ready for use.
α1 -Adrenergic receptor binding assays (in triplicate) were carried out with 0.2 nM [^3 H] prazosin in a final volume of 1.0 ml of Tris buffer at pH 7.4 for 30 min at room temperature, using […] phentolamine to determine non-specific binding. […] The concentrations of synthetic compounds for competition binding were in the range of 0.1-100 μM. After binding had reached equilibrium, incubations were terminated by collecting the membranes on Whatman GF/B filters; the filters were washed twice with 5 ml of 50 mM Tris buffer (pH 7.4) at 4° C.
[^3 H]prazosin (76.6 Ci/mmol) and [^3 H]clonidine (47.0 Ci/mmol) were purchased from NEN. All other chemicals used were reagent grade and were purchased from Sigma (St. Louis, Mo.).

[1] = preliminary results, read-out: affinity to α1 -adrenoceptor (Ki)
[2] = rat brain cortex membranes, 0.2 nM [^3 H] prazosin, pH 7.4, 30 min, room temperature, read-out: α1 Binding (Ki)

| Ki [1] [nM] | Ki [2] [nM] | SMILES |
| --- | --- | --- |
| 0.1 | 0.1 | COc1ccccc1N1CCN(C[C@H]2CN=C3c4ccccc4NC(=O)N32)CC1 [Example 18] |
| – | 26 | COc1ccccc1N1CCN(C[C@@H]2CN=C3c4ccccc4NC(=O)N32)CC1 [Example 19] |

Continued, molecule first:

| SMILES | Ki [1] [nM] | Ki [2] [nM] |
| --- | --- | --- |
| COc1ccccc1N1CCN(C[C@H]2CN=C3c4ccccc4N=C(SC)N32)CC1 [Example 16] | 1.88 | 1.88 |
| COc1ccccc1N1CCN(CC2CN=C3c4ccccc4N=C(SC)N32)CC1 (racemic) [(RS)-I, reference compound] | 3.55 | – |
| COc1ccccc1N1CCN(C[C@@H]2CN=C3c4ccccc4N=C(SC)N32)CC1 [Example 17] | 554 | 554 |
